# Test results: publication PMC10914731, “Homo-BacPROTAC-induced degradation of ClpC1 as a strategy against drug-resistant mycobacteria” (Nature Communications, 2024)
# “And” between values parts separate entries of the source, which are not always exact repeats. Equal entries are not always repeated. Where two headings read alike, the source gives them in different places. Where a SMILES comes first, the peptide text is derived from it. [ ]: non-standard residue; d: D form. NMeLeu(5-OH,4R) = CN[C@@H](C[C@@H](C)CO)C(=O)O; Phe(βR-OMe) = CO[C@H](c1ccccc1)[C@H](N)C(=O)O; Trp(1-Me) = Cn1cc(C[C@H](N)C(=O)O)c2ccccc21; NMeL = CN[C@@H](CC(C)C)C(=O)O; Pra = C#CC[C@H](N)C(=O)O
# Legend:
# [1] = system: Mycobacterium intracellulare; test: microbe, parasite or virus in culture; type: cell-based
# [2] = type: in vitro ADME, Mice
# In short: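 Read-out: parent loss by HPLC-MS/MS, first-order fit, half-life scaled to %Qh (well-stirred liver model). Conditions: 1 µmol/l cpd, 0.5 mg/ml microsomes, 100 mM Tris-HCl pH 7.5, 6.5 mM MgCl2, 1 mM NADPH, 37 °C; acetonitrile stop at multiple times.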
# [3] = biological target: ClpC1-NTD substrate, M. tuberculosis ClpC1P1P2 (Mycobacterium tuberculosis, UniProt P9WPC9); test: biochemical; type: biochemical; conditions: Mtb
# Enterobacter cloacae = test: MIC ESKAPES panel, Enterobacter cloacae; type: cell-based
# Procedure: (§1) Minimum inhibitory concentration (MIC) against ESKAPES panel of Gram positive and Gram negative pathogens (Enterococcus faecium, Staphylococcus aureus, Klebsiella pneumoniae, Acinetobacter baumannii, Pseudomonas aeruginosa, Enterobacter cloacae and Salmonella typhimurium [ESKAPES panel]) were determined at the FNDR by the standard broth dilution method [CLSI, M100]. […] Mueller Hinton broth (MHB) medium was used to grow ESKAPES panel strains. The individual cultures were added as 200 μL (inoculum of 3–7 × 10^5 cfu/ml) to the respective assay plates in each well to all columns, except the media control (200 μL of medium). […] The assay plates were incubated at 37 °C, and the results were noted on the 2nd day as turbidometric readout. The clear wells indicated inhibition of growth, while the turbid wells indicated uninhibited growth.
# Mycobacterium abscessus = test: microbe, parasite or virus in culture; type: cell-based
# [4] = type: in vitro ADME, Rat
# Salmonella typhimurium = test: MIC ESKAPES panel, Salmonella typhimurium; type: cell-based
# Procedure: as §1
# [5] = system: replicating Mtb H37Rv cells; test: Resazurin growth assay, replicating Mtb H37Rv (Supplementary Fig. 2); type: cell-based, Mycobacterium tuberculosis; conditions: three replicate columns
# [6] = Experiment 2, three replicate columns
# [7] = Gram-Negative Bacteria, replicates 1-3
# Sequence of ClpC1-NTD substrate, M. tuberculosis ClpC1P1P2 (P9WPC5 whole entry): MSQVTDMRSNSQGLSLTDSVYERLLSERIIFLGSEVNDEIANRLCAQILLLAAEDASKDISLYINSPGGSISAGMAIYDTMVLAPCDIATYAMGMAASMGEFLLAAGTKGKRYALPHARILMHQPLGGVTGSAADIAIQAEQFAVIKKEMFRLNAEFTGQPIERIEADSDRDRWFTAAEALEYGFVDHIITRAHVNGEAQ
# Sequence of ClpC1-NTD substrate, M. tuberculosis ClpC1P1P2 (P9WPC9 whole entry): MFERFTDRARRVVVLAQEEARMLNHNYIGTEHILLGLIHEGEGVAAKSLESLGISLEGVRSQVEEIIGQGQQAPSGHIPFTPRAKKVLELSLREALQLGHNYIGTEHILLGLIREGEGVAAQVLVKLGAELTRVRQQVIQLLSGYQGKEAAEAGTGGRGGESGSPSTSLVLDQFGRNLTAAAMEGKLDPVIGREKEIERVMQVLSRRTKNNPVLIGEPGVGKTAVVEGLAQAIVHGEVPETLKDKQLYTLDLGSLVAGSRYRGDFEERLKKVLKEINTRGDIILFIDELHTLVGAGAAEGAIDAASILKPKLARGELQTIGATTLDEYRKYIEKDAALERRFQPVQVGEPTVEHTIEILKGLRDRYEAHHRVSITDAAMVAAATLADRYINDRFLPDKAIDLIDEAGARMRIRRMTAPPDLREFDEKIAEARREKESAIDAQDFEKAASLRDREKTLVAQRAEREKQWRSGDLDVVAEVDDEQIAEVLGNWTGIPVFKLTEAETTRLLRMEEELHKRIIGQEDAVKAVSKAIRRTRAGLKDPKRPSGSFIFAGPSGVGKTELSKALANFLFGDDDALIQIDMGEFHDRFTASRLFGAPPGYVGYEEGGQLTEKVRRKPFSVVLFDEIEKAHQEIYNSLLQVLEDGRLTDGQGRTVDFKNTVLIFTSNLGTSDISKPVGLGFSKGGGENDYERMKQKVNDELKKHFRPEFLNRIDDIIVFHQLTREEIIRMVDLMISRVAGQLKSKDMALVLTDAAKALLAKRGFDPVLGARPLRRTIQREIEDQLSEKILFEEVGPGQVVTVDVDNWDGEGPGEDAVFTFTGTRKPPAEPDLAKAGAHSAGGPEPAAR
# Sequence of ClpC1-NTD substrate, M. tuberculosis ClpC1P1P2 (P9WPC3 whole entry, further chain): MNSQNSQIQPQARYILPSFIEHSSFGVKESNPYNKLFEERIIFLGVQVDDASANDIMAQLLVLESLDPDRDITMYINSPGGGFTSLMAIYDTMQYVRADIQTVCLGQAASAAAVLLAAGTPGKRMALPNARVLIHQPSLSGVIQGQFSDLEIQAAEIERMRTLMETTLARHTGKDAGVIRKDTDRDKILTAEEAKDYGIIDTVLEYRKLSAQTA
smiles,measurement,setting,value
"C#CC[C@@H]1NC(=O)[C@H](CC(C)C)N(C)C(=O)[C@H](C(C)C)NC(=O)[C@H]([C@H](OC)c2ccccc2)NC(=O)[C@H](C)NC(=O)[C@H](C[C@@H](C)CO)N(C)C(=O)[C@H](Cc2cn(C)c3ccccc23)NC1=O [Compound 10] (cyclo(A[Phe(βR-OMe)]V[NMeL][Pra][Trp(1-Me)][NMeLeu(5-OH,4R)]))",MIC,"[1]; Experiment 1, read-out: MIC Mycobacterium intracellulare",12.5 µM
same,MIC (µg/ml) Mycobacterium intracellulare,[1]; [6],11.41 µg/mL
same,MIC,"[1]; Experiment 2, three replicate columns, read-out: MIC (µM) Mycobacterium intracellulare",12.5 µM
same,MIC,"[1]; Mycobacterium intracellulare, Experiment 1, read-out: MIC Mycobacterium intracellulare",11.4 µg/mL
same,MIC,"[1]; Mycobacterium intracellulare, Experiment 2, three replicate columns, read-out: MIC (µM) Mycobacterium intracellulare",12.5 µM
same,MIC,"[1]; Mycobacterium intracellulare, Experiment 2, three replicate columns, read-out: MIC (µg/ml) Mycobacterium intracellulare",11.4 µg/mL
same,MIC,"[1]; Mycobacterium intracellulare, mean ± SD, read-out: MIC Mycobacterium intracellulare",12.5 µM
same,Microsomal Stability Mouse QH,[2]; Mouse,>88.400%
same,Microsomal Stability Mice,[2]; clearance in microsomes,> 88 %Qh
same,DC50,"[3]; Measurement 1-4, read-out: DC50, single measurements",> 100 µM
same,DC50,"[3]; mean of the measurements, read-out: DC50, Mean",> 100 µM
same,MIC,"Enterobacter cloacae; Enterobacter cloacae, Gram negative, n = 3 well replicates",> 50 µM
same,MIC,"Enterobacter cloacae; Enterobacter cloacae, Gram-Negative Bacteria, replicates 1-3",> 45.6 µg/mL
same,MIC,Enterobacter cloacae; [7],>50 µM
same,MIC (µg/ml) Mycobacterium abscessus,Mycobacterium abscessus; [6],11.41 µg/mL
same,MIC,"Mycobacterium abscessus; Experiment 2, three replicate columns, read-out: MIC (µM) Mycobacterium abscessus",12.5 µM
same,MIC,"Mycobacterium abscessus; Mycobacteroides abscessus, Experiment 1, read-out: MIC Mycobacterium abscessus",12.5 µM and 11.4 µg/mL
same,MIC,"Mycobacterium abscessus; Mycobacteroides abscessus, Experiment 2, three replicate columns, read-out: MIC (µM) Mycobacterium abscessus",12.5 µM
same,MIC,"Mycobacterium abscessus; Mycobacteroides abscessus, Experiment 2, three replicate columns, read-out: MIC (µg/ml) Mycobacterium abscessus",11.4 µg/mL
same,MIC,"Mycobacterium abscessus; Mycobacteroides abscessus, mean ± SD, read-out: MIC Mycobacterium abscessus",12.5 µM
same,Hepatocyte Stability Rat QH,[4]; Rat,69.830%
same,Hepatocyte Rat,[4]; clearance in hepatocytes,70 %Qh
same,MIC,Salmonella typhimurium; [7],>50 µM
same,MIC,"Salmonella typhimurium; Salmonella enterica, TYPHIMURIUM, Gram negative, n = 3 well replicates",> 50 µM
same,MIC,"Salmonella typhimurium; Salmonella enterica, TYPHIMURIUM, Gram-Negative Bacteria, replicates 1-3",> 45.6 µg/mL
same,"Supplementary Figure 2 dose-response value, replicating H37Rv cells",[5]; Conc. 0.0488281 µM,96.6607 and 85.0023 and 97.6783
same,"Supplementary Figure 2 dose-response value, replicating H37Rv cells",[5]; Conc. 0.0976562 µM,91.646 and 99.7213 and 83.381
same,"Supplementary Figure 2 dose-response value, replicating H37Rv cells",[5]; Conc. 0.195312 µM,93.9637 and 88.7594 and 93.2053
same,"Supplementary Figure 2 dose-response value, replicating H37Rv cells",[5]; Conc. 0.390625 µM,95.6392 and 103.405 and 93.9985
same,"Supplementary Figure 2 dose-response value, replicating H37Rv cells",[5]; Conc. 0.78125 µM,94.5519 and 83.8686 and 95.6043
same,"Supplementary Figure 2 dose-response value, replicating H37Rv cells",[5]; Conc. 1.5625 µM,94.1959 and 100.812 and 95.4766
same,"Supplementary Figure 2 dose-response value, replicating H37Rv cells",[5]; Conc. 3.125 µM,91.4989 and 87.2697 and 84.1472
same,"Supplementary Figure 2 dose-response value, replicating H37Rv cells",[5]; Conc. 6.25 µM,90.8682 and 96.9509 and 92.2612
same,"Supplementary Figure 2 dose-response value, replicating H37Rv cells",[5]; Conc. 25 µM,58.5243 and 57.8085 and 53.4206
same,"Supplementary Figure 2 dose-response value, replicating H37Rv cells",[5]; Conc. 50 µM,10.7146 and 27.4379 and 10.7068
same,"Supplementary Figure 2 dose-response value, replicating H37Rv cells",[5]; Conc. 100 µM,10.7533 and 7.29 and 10.5908
